The target in the assay is T1, Smo (Mus musculus, UniProt P56726).
T1 construct: endogenous in cells; host or cells: NIH-3T3 cells stably carrying the Gli reporter plasmid
T1 sequence (P56726 33-793): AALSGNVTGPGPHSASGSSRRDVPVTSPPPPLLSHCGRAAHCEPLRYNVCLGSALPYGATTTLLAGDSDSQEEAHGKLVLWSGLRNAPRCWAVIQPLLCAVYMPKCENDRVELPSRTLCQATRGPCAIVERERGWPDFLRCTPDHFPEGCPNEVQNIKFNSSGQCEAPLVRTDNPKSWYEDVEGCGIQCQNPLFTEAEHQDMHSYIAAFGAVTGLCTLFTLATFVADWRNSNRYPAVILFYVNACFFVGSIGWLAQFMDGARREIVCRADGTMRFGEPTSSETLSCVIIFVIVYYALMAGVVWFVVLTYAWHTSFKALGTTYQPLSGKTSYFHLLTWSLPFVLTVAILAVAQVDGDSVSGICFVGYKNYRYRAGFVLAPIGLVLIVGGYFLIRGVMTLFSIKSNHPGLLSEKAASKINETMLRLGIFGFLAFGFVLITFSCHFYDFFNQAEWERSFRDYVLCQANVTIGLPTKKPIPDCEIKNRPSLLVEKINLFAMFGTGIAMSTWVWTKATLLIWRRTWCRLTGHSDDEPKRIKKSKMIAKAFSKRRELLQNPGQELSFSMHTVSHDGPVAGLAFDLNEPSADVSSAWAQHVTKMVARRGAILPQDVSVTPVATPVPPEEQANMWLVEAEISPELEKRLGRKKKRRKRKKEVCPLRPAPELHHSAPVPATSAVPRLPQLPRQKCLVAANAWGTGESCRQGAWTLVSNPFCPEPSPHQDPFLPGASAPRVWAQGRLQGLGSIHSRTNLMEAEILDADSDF
The experiment in a line: Gli reporter luciferase assay in NIH-3T3/Gli reporter cells stimulated with mouse Shh-N end fragment. Format: cell-based. As to conditions: NIH3T3; 1 μM compound; NIH-3T3/Gli reporter cells with mouse Shh-N culture supernatant, 48 hr; luciferase activity, control without compound as 100; read-out: inhibitory rate (%) at 1 μM. The method, then: Gli reporter plasmid was constructed by inserting 8×Gli-binding site and chicken δ-crystalline promoter into the upstream of luc+ of pGL3 (Promega).
prepared in reference to the base sequence described in GenBank accession No.; X02187, and chicken genome DNA (Clontech) as a template. PCR reaction was performed using Pfu Turbo (Stratagene) and following the attached protocol. The obtained 108 bp fragment was digested with restriction enzymes BglII and HindIII, and inserted into BglII-HindIII site of pGL3 to give plasmid pGL3/δ-cry promoter.
As 8×Gli-binding site, a sequence containing eight 9-bp Gli bound consensus sequences (GACCACCCA) described in Yoon et al., J. Biol. Chem., vol. 273, pages 3496-3501 (1998) was prepared from synthetic DNA. That is, two synthetic DNAs,
were heat treated at 95° C. for 2 minutes, and incubated at 37° C. for 1 hr for annealing to give a double stranded DNA of the above-mentioned two synthetic DNAs. The obtained double stranded DNA was digested with restriction enzymes BglII and KpnI, and the obtained DNA fragment was inserted into BglII-KpnI site of pGL3/δ-cry promoter to construct plasmid pGL3/δ-cry promoter, 8×Gli binding site, i.e., Gli reporter plasmid.
HEK293 cells were grown in D-MEM medium (Invitrogen) containing 10% fetal bovine serum in a 10 cm dish and pcDNA3.1/mShh-N was introduced into the cells using FuGENE6 (Roche Applied Science). Thereafter, the HEK293 cells were cultured in a carbon dioxide gas incubator at 37° C. for 24 hours, and the medium was exchanged with D-MEM medium (Invitrogen) containing 2% fetal bovine serum. After culturing for 48 hr, a culture supernatant containing recombinant type mouse Shh-N end fragment was obtained by filtration using a filter ([…]).
Using D-MEM (Invitrogen) containing 10% fetal bovine serum, expression plasmid pcDNA3.1 and Gli reporter plasmid (pGL3/δ-cry promoter, 8×Gli binding site) produced by the method of Experimental Example 1 were introduced into NIH-3T3 cells grown in a 10 cm dish by the use of FuGENE6 (Roche Applied Science).
After culture for 24 hr, the cells were recovered, suspended in D-MEM medium containing 10% fetal bovine serum and supplemented with Geneticin (Life Technologies Oriental, Inc.) to a final concentration of 500 μg/ml, diluted to 10^4 cells/ml, plated on a 96 well plate, and cultured in a carbon dioxide gas incubator at 37° C. to give Geneticin resistant transformed cell line.
The obtained transformed cell line was cultured in a 96 well plate, mouse Shh-N end fragment obtained in Experimental Example 3 was added, and NIH-3T3/Gli reporter cell, which is a cell line capable of induction of luciferase expression, was selected.
NIH-3T3/Gli reporter cells cultured in D-MEM (Invitrogen) containing 10% fetal bovine serum were plated in a 96 well white plate at 1×10^4 cells/well, and cultured overnight in a carbon dioxide gas incubator at 37° C. The medium was removed, a compound (50 μl) and culture supernatant of mouse Shh-N end fragment-expressing HEK293 (D-MEM medium containing 2% fetal bovine serum, 50 μl) were added, and the cells were cultured for 48 hr in a carbon dioxide gas incubator at 37° C. Bright-Glo (Promega, 50 μl) was added, and the mixture was stirred, after which luciferase activity was measured by EnVision (PerkinElmer). The inhibition rate was calculated based on the luciferase activity of the control without addition of the compound as 100.
With `CCc1nc2c(c(OC(C)C)c(C(=O)NC3CCN(C(=O)CO)CC3)n2C)c(=O)n1CC(=O)c1ccccc1` [Example 22, 2-ethyl-N-[1-(hydroxyacetyl)piperidin-4-yl]-7-methyl-5-(1-methylethoxy)-4-oxo-3-(2-oxo-2-phenylethyl)-4,7-dihydro-3H-pyrrolo[2,3-d]pyrimidine-6-carboxamide], the inhibition at 1 µM came out at 98%.
For `Cc1nc2c(c(OC(C)C)c(C(=O)NC3CCN(C(=O)CO)CC3)n2C)c(=O)n1-c1ccccc1` [Example 29, N-[1-(hydroxyacetyl)piperidin-4-yl]-2,7-dimethyl-5-(1-methylethoxy)-4-oxo-3-phenyl-4,7-dihydro-3H-pyrrolo[2,3-d]pyrimidine-6-carboxamide] the value was 99%.
For the compound `CCc1nc2c(c(OCC(F)(F)F)c(C(=O)NC3CCN(C(=O)CO)CC3)n2C)c(=O)n1CC(=O)c1ccc(F)cc1` [Example 33, 2-ethyl-3-[2-(4-fluorophenyl)-2-oxoethyl]-N-[1-(hydroxyacetyl)piperidin-4-yl]-7-methyl-4-oxo-5-(2,2,2-trifluoroethoxy)-4,7-dihydro-3H-pyrrolo[2,3-d]pyrimidine-6-carboxamide], the inhibition at 1 µM worked out at 96%.
For `CCc1nc2c(c(OC(C)C)c(C(=O)NC3CCN(C(=O)CO)CC3)n2C)c(=O)n1CC(=O)c1ccc(F)cc1` [Example 34, 2-ethyl-3-[2-(4-fluorophenyl)-2-oxoethyl]-N-[1-(hydroxyacetyl)piperidin-4-yl]-7-methyl-5-(1-methylethoxy)-4-oxo-4,7-dihydro-3H-pyrrolo[2,3-d]pyrimidine-6-carboxamide] the value was 97%.

Source of the values: patent US8614208B2, “Fused heterocyclic ring derivative and use thereof” (Takeda Pharmaceutical Company Limited, priority 2009, dated 2013).
